In one data set the test system is TNF release. The data set is described as follows: Septic shock model (LPS). The data set is classed as in vivo, mice. The following applies: for reduction in the TNF release: statistically significant. On the procedure:
Injection of lipopolysaccharide (LPS) induces a rapid release of soluble tumour necrosis factor (TNF-alpha) into the periphery. This model is used to analyse prospective blockers of TNF release in vivo.
Six BALB/cJ female mice (20 g) per group were treated at the intended dosing once, po. Thirty minutes later, LPS (15 μg/kg; E. Coli serotype 0111:B4) was injected ip. Ninety minutes later, mice were euthanized and blood was collected. Circulating TNF alpha levels were determined using commercially available ELISA kits. Dexamethasone (5 μg/kg) was used as a reference anti-inflammatory compound. Selected compounds are tested at one or multiple doses, e.g. 3 and/or 10 and/or 30 mg/kg, po.

For data set [1], the system named is Collagen Induced Arthritis (CIA). The data set can be described thus: rat CIA model. It is filed as in vivo. As for the experimental part:
Completed Freund's adjuvant (CFA) and incomplete Freund's adjuvant (IFA) were purchased from Difco. Bovine collagen type II (CII), lipopolysaccharide (LPS), and Enbrel were obtained from Chondrex (Isle d'Abeau, France); Sigma (P4252, L'Isle d'Abeau, France), Whyett (25 mg injectable syringe, France) Acros Organics (Palo Alto, Calif.), respectively. All other reagents used were of reagent grade and all solvents were of analytical grade.
Dark Agouti rats (male, 7-8 weeks old) were obtained from Harlan Laboratories (Maison-Alfort, France). Rats were kept on a 12 hours light/dark cycle (0700-1900). The temperature was maintained at 22° C., and food and water were provided ad libitum.
One day before the experiment, CII solution (2 mg/mL) was prepared with 0.05 M acetic acid and stored at 4° C. Just before the immunization, equal volumes of adjuvant (IFA) and CII were mixed by a homogenizer in a pre-cooled glass bottle in an ice water bath. Extra adjuvant and prolonged homogenization might be required if an emulsion is not formed. 0.2 mL of the emulsion was injected intradermally at the base of the tail of each rat on day 1, a second booster intradermal injection (CII solution at 2 mg/mL in CFA 0.1 mL saline) was performed on day 9. This immunization method was modified from published methods (Sims et al, 2004; Jou et al., 2005).
The therapeutic effects of the test compounds were tested in the rat CIA model. Rats were randomly divided into equal groups and each group contained 10 rats. All rats were immunized on day 1 and boosted on day 9. Therapeutic dosing lasted from day 16 to day 30. The negative control group was treated with vehicle (MC 0.5%) and the positive control group with Enbrel (10 mg/kg, 3× week, s.c.). A compound of interest was typically tested at 3 doses, e.g. 3, 10, 30 mg/kg, p.o.
Arthritis was scored according to the method of Khachigian 2006, Lin et al 2007 and Nishida et al. 2004). The swelling of each of the four paws was ranked with the arthritic score as follows: 0—no symptoms; 1—mild, but definite redness and swelling of one type of joint such as the ankle or wrist, or apparent redness and swelling limited to individual digits, regardless of the number of affected digits; 2—moderate redness and swelling of two or more types of joints; 3—severe redness and swelling of the entire paw including digits; 4—maximally inflamed limb with involvement of multiple joints (maximum cumulative clinical arthritis score 16 per animal) (Nishida et al., 2004).
The change in body weight (%) after onset of arthritis was calculated as follows: […]
X-ray photos were taken of the hind paws of each individual animal. […]

Data set [2] can be described thus: Caco2 permeability, bi-directional. The data set is classed as in vitro ADME. To be noted: human; for Papp A→B at 1 h, 10 μM: Caco-2, pH 7.4. As for the experimental part: Bi-directional Caco-2 assays were performed as described below. Caco-2 cells were obtained from European Collection of Cell Cultures (ECACC, cat 86010202) and used after a 21 day cell culture in 24-well Transwell plates (Fisher TKT-545-020B).
2×10^5 cells/well were seeded in plating medium consisting of DMEM+GlutaMAXI+1% NEAA+10% FBS (FetalClone II)+1% Pen/Strep. The medium was changed every 2-3 days.
Test and reference compounds (propranolol and rhodamine 123 or vinblastine, all purchased from Sigma) were prepared in Hanks' Balanced Salt Solution containing 25 mM HEPES (pH 7.4) and added to either the apical (125 μL) or basolateral (600 μL) chambers of the Transwell plate assembly at a concentration of 10 μM with a final DMSO concentration of 0.25%.
50 μM Lucifer Yellow (Sigma) was added to the donor buffer in all wells to assess integrity of the cell layers by monitoring Lucifer Yellow permeation. As Lucifer Yellow (LY) cannot freely permeate lipophilic barriers, a high degree of LY transport indicates poor integrity of the cell layer.
After a 1 hour incubation at 37° C. while shaking at an orbital shaker at 150 rpm, 70 μL aliquots were taken from both apical (A) and basal (B) chambers and added to 100 μLl 50:50 acetonitrile:water solution containing analytical internal standard (0.5 μM carbamazepine) in a 96 well plate.
Lucifer yellow was measured with a Spectramax Gemini XS (Ex 426 nm and Em 538 nm) in a clean 96 well plate containing 150 μL of liquid from basolateral and apical side.
Concentrations of compound in the samples were measured by high performance liquid-chromatography/mass spectroscopy (LC-MS/MS).
The Efflux ratios, as an indication of active efflux from the apical cell surface, were calculated using the ratio of PappB>A/PappA>B.

The structures appear in SMILES notation.

As a reminder, the Papp A→B is how fast a substance crosses the layer from the apical side. A low value points to slow passage. Take `O=C(Nc1nc2cccc(-c3ccc(OCc4cccnc4)cc3)n2n1)C1CC1` [Compound 36, N-(5-(4-(pyridin-3-ylmethoxy)phenyl)-[1,2,4]triazolo[1,5-a]pyridin-2-yl)cyclopropanecarboxamide]: the “activity in the septic shock model” value with TNF release (30 mg/kg) is “active”. Besides, the “activity in the rat CIA study” value in data set [1] (30 mg/kg) is on record as “active”. The Papp A→B at 1 h, 10 μM in data set [2] was 36.5 ×10⁻⁶ cm/s.

Usually efflux ratio stands for a quotient of directional permeabilities that is used to spot active efflux. For `O=C(Nc1nc2cccc(-c3ccc(OCc4ccccn4)cc3)n2n1)C1CC1` [Compound 37, N-(5-(4-(pyridin-2-ylmethoxy)phenyl)-[1,2,4]triazolo[1,5-a]pyridin-2-yl)cyclopropanecarboxamide], the “activity in the septic shock model” value in the data set on TNF release (3 mg/kg) is reported as “active”. For the same compound, the “activity in the rat CIA study” value in data set [1] (10 mg/kg) is on record as “active”. Moreover, the efflux ratio at 1 h, 10 μM in data set [2] (Caco-2, pH 7.4, PappB>A/PappA>B) is 0.85. The compound further came in with an apparent permeability from apical to basolateral (Papp A→B) at 1 h, 10 μM in data set [2] of 23 ×10⁻⁶ cm/s.

Take `O=C(Nc1nc2cccc(-c3ccc(NCc4ccccc4)cc3)n2n1)C1CC1` [Compound 72, N-(5-(4-(benzylamino)phenyl)-[1,2,4]triazolo[1,5-a]pyridin-2-yl)cyclopropanecarboxamide]: the Papp A→B at 1 h, 10 μM in data set [2] came out at 14.9 ×10⁻⁶ cm/s.

`O=C(Nc1nc2cccc(-c3ccc(OCc4ccc(C(F)(F)F)nc4)cc3)n2n1)C1CC1` [Compound 78, N-(5-(4-((6-(trifluoromethyl)pyridin-3-yl)methoxy)phenyl)-[1,2,4]triazolo[1,5-a]pyridin-2-yl)cyclopropanecarboxamide] displayed a Papp A→B at 1 h, 10 μM in data set [2] of 2 ×10⁻⁶ cm/s.

In the case of `N#Cc1ccc(COc2ccc(-c3cccc4nc(NC(=O)C5CC5)nn34)cc2)cn1` [Compound 176, N-(5-(4-((6-cyanopyridin-3-yl)methoxy)phenyl)-[1,2,4]triazolo[1,5-a]pyridin-2-yl)cyclopropanecarboxamide], the “reduction in the TNF release” value in the data set with TNF release (3 mg/kg po) and in the data set with TNF release (10 mg/kg po) was greater than 50% each time. In addition, in data set [1] (3 mg/kg), the “clinical score, rat CIA study” value is “Statistical significance”. Further, the “paw swelling, rat CIA study” value in data set [1] (3 mg/kg) is reported as “Statistical significance”. The “efficacy in the rat CIA study, all readouts” value in data set [1] (rat, p.o., day 16 to day 30) was “efficacious in all readouts”. In addition, the Papp A→B at 1 h, 10 μM in data set [2] came to 10.6 ×10⁻⁶ cm/s.
